Laboratory results taken from doi:10.1101/757047v1 (biorxiv, 2019).

How the values were obtained:
[1] = biological target: STK10 (Homo sapiens, UniProt O94804); experiment: biochemical
[2] = biological target: SLK (Homo sapiens, UniProt Q9H2G2); experiment: biochemical
Chain of SLK (Q9H2G2 34-292): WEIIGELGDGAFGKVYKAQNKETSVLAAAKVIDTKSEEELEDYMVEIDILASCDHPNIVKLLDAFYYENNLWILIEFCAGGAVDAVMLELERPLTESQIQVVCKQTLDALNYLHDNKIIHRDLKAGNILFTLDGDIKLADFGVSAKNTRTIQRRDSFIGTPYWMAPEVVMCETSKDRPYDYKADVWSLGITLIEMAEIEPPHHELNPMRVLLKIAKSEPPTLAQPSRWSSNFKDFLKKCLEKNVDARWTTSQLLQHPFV

Chain of STK10 (O94804 36-294 limits assumed): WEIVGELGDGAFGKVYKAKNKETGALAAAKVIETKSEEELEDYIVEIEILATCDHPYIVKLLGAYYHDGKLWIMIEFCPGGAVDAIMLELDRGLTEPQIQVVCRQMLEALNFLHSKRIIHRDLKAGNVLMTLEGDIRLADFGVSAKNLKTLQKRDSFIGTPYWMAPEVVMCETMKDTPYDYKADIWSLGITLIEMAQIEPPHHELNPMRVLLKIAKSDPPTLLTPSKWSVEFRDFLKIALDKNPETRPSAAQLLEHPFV

For C#Cc1cccc(Nc2c(C#N)cnc3cc(OC)c(OC)cc23)c1 [compound 82], the Ki [1] was 0.027 µM and the Ki [2] was 0.018 µM.
